Laboratory results reported in patent US7005513B1, “Functionalized glycosaminoglycan polymer and medical instruments and drugs by using the same” (Netech, Inc., priority 1999, dated 2006).

Tested on: human coronary artery endothelial cells (CEC)
Test: CEC proliferation on coated multiplate (WST-1)
Type: cell-based
Parameters: reference not given here
Conditions: substance as plate coating, 3 days
Description: A polystyrene 96-well multiplate was coated with aqueous P-I-20 or P-N-12 solutions (0.5 mg/ml) of the present invention, and also 2% gelatin and 10 μg/ml of human fibronectin solution, these were inoculated with 6,000 human coronary artery endothelial cells (CEC) suspended in a Dulbecco modified Eagle medium (10% fetal bovine serum added), after which FGF2 or VEGF165 were added as cell growth factors, and this was cultured from 3 days. After culturing, a WST-1 reagent (cell counting kit, Dojindo) was used to count the number of increased cells, and the results of an evaluation of the proliferation rate are shown in Table 1.

Row | Substance | CEC Proliferation Rate (FGF2 4 μg/l) | CEC Proliferation Rate (FGF2 8 μg/l) | CEC Proliferation Rate (VEGF165 4 μg/l) | CEC Proliferation Rate (VEGF165 8 μg/l)
1 | Fibronectin | 273 | 327 | 371 | 436
2 | Gelatin | 356 | 389 | 335 | 385
